Reference: US20140148498A1, “METHODS AND COMPOSITIONS FOR THE TREATMENT OF MARFAN SYNDROME AND ASSOCIATED DISORDERS” (THE JOHNS HOPKINS UNIVERSITY, priority 2011, published 2014)
“Also recorded” adds a separate entry of the source.

Assays:
[1] = system: Fbn1^C1039G/+ mice; test: Aortic wall architecture score (VVG staining); assay type: in vivo; details: FIG. 9
Method: Latex-infused ascending aortas were transected just above the level of the aortic valve, and 2-3 mm transverse sections were mounted in 4% agar prior to paraffin fixation. Five micrometer aortic sections underwent Verhoeff-van Giesen (VVG) staining and were imaged at 40× magnification, using a Nikon Eclipse E400 microscope. Wall thickness of the aortic media was measured by a single blinded observer at 16 different locations around the most proximal ascending aortic ring and averaged. Wall architecture of 4 representative sections for each mouse was assessed by the same 3 blinded observers and graded on an arbitrary scale of 1 (indicating no breaks in the elastic fiber) to 5 (indicating diffuse fragmentation), and the results were averaged. Elastic fiber content was quantified in four separate representative images of each section of the most proximal ascending aorta by a single blinded observer, using NIS Elements Advanced Research (Nikon, Japan). The aortic media and the elastic fibers were individually outlined and their areas calculated. The respective areas were averaged from all the images of a given aortic section and the ratio of elastic fiber content to total aortic media was determined. Individual lobes of the lungs were mounted in 4% agar and fixed in paraffin. Five micrometer lung sections underwent hematoxylin and eosin staining and were imaged at 10× magnification, using a Nikon Eclipse E400 microscope. Five fields were analyzed for each lobe of each lung by a single blinded observer, and a mean linear intercept was calculated using a previously described method (J. P. Habashi et al., Science 312, 117 (2006); and E. R. Neptune et al., Nat. Genet. 33, 407 (2003)).

[2] = system: AT2KO:Fbn1^C1039G/+ mice; test: Aortic root growth by echocardiography, 7 months of treatment, MFS mice lacking AT2; assay type: in vivo
Method: (§1) A head-to-head comparison of ACEi versus ARBs was performed. Fbn1^C1039G/+ mice and WT littermates were treated with hemodynamically equivalent doses (FIG. 8) of either the ACEi enalapril (10 to 15 mg/kg of body weight per day) or the ARB losartan (40 to 60 mg/kg per day) (R. D. Patten et al., Clin. Sci 104, 109 (2003)), beginning at 8 weeks of age, and were assessed with serial echocardiograms. […] It is noteworthy that losartan reduced aortic root growth in Fbn1^C1039G/+ mice, but had no effect in WT littermates (P=0.27). […] Whether AT2 signaling is needed to achieve losartan's full therapeutic benefit was assessed. AT2KO:Fbn1^C1039G/+ mice were treated with losartan from 8 weeks of age and followed by serial echocardiography until they were killed at 9 months of age (FIG. 2C).
(§2) All mice were cared for under strict compliance with the Animal Care and Use Committee of the Johns Hopkins University School of Medicine. The Fbn1^C1039G/+ and AT2KO lines were maintained n a pure C57BL/6 background (backcrossed for greater than 9 generations), allowing for valid comparisons. […] Mice that were analyzed for Western Blot analysis had their proximal ascending aortas (root to right brachiocephalic trunk) immediately dissected out, flash frozen in liquid nitrogen and stored at −80d until further processing. Mice that were analyzed for aortic histology had latex injected under low pressure into the left ventricular apex until it was visible in the descending abdominal aorta. Mice that were analyzed for lung histology had their trachea intubated with a 20-gauge blunted needle, and 0.5% agar was infused under a low and constant pressure to gradually inflate the lungs. […]
Mice were started on medication at 8 weeks of age and continued for 7 months. […] Blood pressures were analyzed by taking 20 tail cuff blood pressures per day over 5 days in each mouse to habituate the mice to the tail cuff pressure system, and the blood pressures obtained on the last day were averaged. At least 4 mice for each treatment group were analyzed. […]

[3] = system: WT mice; test: Aortic root growth by echocardiography, 7 months of treatment, WT littermates; assay type: in vivo
Method: as §1, with “AT2KO:Fbn1^C1039G/+ mice were treated with losartan from 8 weeks of age and followed by serial echocardiography until they were killed at 9 months of age (FIG. 2C).” left out
as §2, with “Medicine.” for “Medicine. The Fbn1^C1039G/+ and AT2KO lines were maintained n a pure C57BL/6 background (backcrossed for greater than 9 generations), allowing for valid comparisons.”

[4] = system: JNK1; test: Western blot of proximal ascending aorta: JNK1 activation (Examples 4-5); assay type: in vivo, mice
Excerpt: All mice were cared for under strict compliance with the Animal Care and Use Committee of the Johns Hopkins University School of Medicine. The Fbn1^C1039G/+ and AT2KO lines were maintained n a pure C57BL/6 background (backcrossed for greater than 9 generations), allowing for valid comparisons. In order to further accommodate the potential for temporal- or background-specified variation, all comparisons were made between contemporary littermates when possible. The AT21C0 mice were obtained as a generous gift from Dr. Inagami (T. Ichiki et al., Nature 377, 748 (1995)). The Agtr2 gene resides on the X chromosome and therefore we used either male mice carrying the mutated allele (who are hemizygous) or homozygous females, both of which have been previously shown to be functionally null for the AT2 receptor (T. Ichiki et al., Nature 377, 748 (1995)). Mice were sacrificed with an inhalation overdose of halothane (Sigma-Aldrich, St. Louis). Mice underwent immediate laparotomy, descending abdominal aortic transection, and PBS (pH 7.4) was infused through the right and left ventricles to flush out the blood. Mice that were analyzed for Western Blot analysis had their proximal ascending aortas (root to right brachiocephalic trunk) immediately dissected out, flash frozen in liquid nitrogen and stored at −80d until further processing. Mice that were analyzed for aortic histology had latex injected under low pressure into the left ventricular apex until it was visible in the descending abdominal aorta. Mice that were analyzed for lung histology had their trachea intubated with a 20-gauge blunted needle, and 0.5% agar was infused under a low and constant pressure to gradually inflate the lungs. […]
Mouse aortic root and ascending aortas (aortic root excluding the aortic valve to origin of right brachiocephalic trunk) were harvested, snap-frozen in liquid nitrogen and stored at −80° C. until processed. […] Equal protein loading of samples was determined by a protein assay (BioRad, CA), and confirmed by probing with antibodies against β-Actin or GAPDH (Sigma, Mo.). […]

CCCCc1nc(Cl)c(CO)n1Cc1ccc(-c2ccccc2-c2nn[nH]n2)cc1 [losartan]
Aortic wall architecture score [1]: significantly more beneficial than both placebo and enalapril treatment; also recorded: significant improvement
Aortic root growth over 7 months of treatment ([2]; AT2KO:Fbn1^C1039G/+ mice): modest reduction in aortic root growth; also recorded: diminished effectiveness
Final absolute aortic root diameter ([2]; AT2KO:Fbn1^C1039G/+ mice, 7 months of treatment, FIG. 2C, mean +/- 2 SEM): 2.06+/−0.07 mm
Decrease in aortic root growth in treated AT2KO:Fbn1^C1039G/+ mice relative to that seen in Fbn1^C1039G/+ animals that expressed AT2 ([2]; losartan from 8 weeks to 9 months of age, P<0.001): 40%
Aortic root growth over 7 months of treatment ([3]; WT littermates): had no effect
Final absolute aortic root diameter ([3]; WT mice, 7 months of treatment, FIG. 2B, mean +/- 2 SEM): 1.77+/−0.15 mm
JNK1 activation ([4]; Fbn1^C1039G/+ mice, FIG. 13): small reduction in JNK1 activation; also recorded: modest reduction in JNK1 activation
JNK1 activation ([4]; treated AT2KO:Fbn1^C1039G/+ versus treated Fbn1^C1039G/+ mice, FIG. 14): no significant change; also recorded: no significant difference
